# From US20130143873A1 (priority 2010, published 2013)
# Legend:
# [1] = Blood glucose (hyperglycemia) after daily oral diazoxide in C57BL/6J mice; type: in vivo; conditions: female C57BL/6J mice; 1 mg/kg (3 mg/m^2) and 0.05 mg/kg (0.15 mg/m^2) p.o. daily; 30 days; glucose at time 0 and 60 minutes
# Experimental: Female C57BL/6J mice, 11 weeks of age, were purchased from Charles River and maintained on a 12:12 hr light:dark cycle, with standard chow and water freely available. The experiments began at 11:00 h. […] From day 4 on, glucose blood levels were measured every 3-4 days during the 30-day treatment period. Measurements were performed immediately before drug administration (time 0) and at 60 minutes. Blood samples were obtained from the saphenous vein and glucose levels were determined using a glucometer and glucose test strips (Accu-Chek® Aviva, Roche Diagnostics, Indianapolis, Ind., USA). For each group, hyperglycemia was considered when glucose concentration was equal or higher than 176 mg/dl.
# mice = conditions: 100 mg/kg (300 mg/m^2); cited from earlier work
# [2] = system: C57BL/6J-TgN(SOD1-G93A)1Gur^dl transgenic mice; assay: Survival in transgenic mice model for amyotrophic lateral sclerosis; type: in vivo
# Experimental: (§1) Transgenic C57BL/6J-TgN(SOD1-G93A)1Gur^dl mice were originally purchased from The Jackson Laboratories (Bar Harbor, Me.) and routinely identified as positive carriers of the transgene at early postnatal age by PCR amplification (Garney et al. Motor neuron degeneration in mice that express a human Cu,Zn superoxide dismutase mutation. Science 1994. 264(5166):1772-5). The animal colony was kept under controlled temperature (22±2° C.), humidity (40-60%) and light (12 h cycles), and treated in accordance with the European Community Council directive on animal welfare (86/609/EEC).
# At 70 days postnatal age, mice identified as positive carriers of the SOD1-G93A transgene were randomly assigned to a diazoxide-treatment or control group. An additional group composed by wild type C57BL/6J was also used as absolute control for spontaneous deaths. The treatment started at postnatal day 70 and lasted until the animal was sacrificed. […] Each group consists of 14 animals.
# Around 75 days of postnatal age treated and not treated mice began to display less exploratory activity and less feeding behaviour as well as a loss of body weight. 20-30 days after, motor deficits were clearly observable, with a continuous loss of muscular mass and body weight. Between postnatal day 137 and 172 animals began to not be able to right themselves within 30 seconds from either side being this their last period of survival. Date and cause of death were recorded for each mouse. For humanitarian reasons, animals were closely monitored and sacrificed as moribund prior to actual death using criteria for severe moribund state. To determine duration of survival reliably and humanely, the moribund state, defined as the inability of mice to right themselves 30 seconds after being placed on a side was used. The moribund mice were considered as “dead”, and were euthanized using carbon dioxide. It is known that when animals reach this “moribund” stage they are unable to survive more than 24 additional hours.
# [3] = Blood glucose (hyperglycemia) after daily oral diazoxide in SOD1-G93A transgenic mice; type: in vivo; conditions: 4 mg/kg/day (12 mg/m^2/day) and 0.8 mg/kg/day (2.4 mg/m^2/day) p.o., 100 days, glucose at postnatal days 105, 115, 145
# Experimental: as §1
# At 40 days postnatal age, mice identified as positive carriers of the SOD1-G93A transgene were randomly assigned to a diazoxide-treatment or control group. The treatment started at postnatal day 45 and lasted until postnatal day 145. […] Each group consists of 3 animals.
# Glucose blood levels were measured at postnatal days 105, 115 and 145. Measurements were performed immediately before drug administration (time 0) and at 60 minutes. Blood samples were obtained from the saphenous vein and glucose levels were determined using a glucometer and glucose test strips (Accu-Chek® Aviva, Roche Diagnostics, Indianapolis, Ind., USA). For each group, hyperglycemia was considered when glucose concentration was equal or higher than 176 mg/dl.
# [4] = system: C57BL/6J-TgN(SOD1-G93A)1Gur^dl transgenic mice; assay: Disease onset (time of peak body weight) in transgenic mice model for amyotrophic lateral sclerosis; type: in vivo; conditions: postnatal day 45 to 145
# Experimental: as §1
# At 40 days postnatal age, mice identified as positive carriers of the SOD1-G93A transgene were randomly assigned to a diazoxide-treatment or control group. The treatment started at postnatal day 45 and lasted until postnatal day 145. […] Each group consists of 30 animals.
# The disease onset was determined as the time when the mouse reached its peak body weight.
# [5] = system: C57BL/6J-TgN(SOD1-G93A)1Gur^dl transgenic mice; assay: Motor nerve conduction, tibialis anterior CMAP amplitude, in transgenic mice model for amyotrophic lateral sclerosis; type: in vivo; conditions: postnatal day 45 to 85; for increase in the amplitude of the tibialis anterior CMAP compared with the vehicle control group: 100% = mean CMAP amplitude of wild type control group
# Experimental: as §1
# At 40 days postnatal age, mice identified as positive carriers of the SOD1-G93A transgene were randomly assigned to a diazoxide-treatment or control group. An additional group composed by wild type C57BL/6J was also used as absolute control for nerve conduction measurements. The treatment started at postnatal day 45 and lasted until postnatal day 85. The drug was administered daily orally by gavage (p.o.), in a dose volume of 200 μl. […] Each group consists of 8 animals.
# At postnatal day 85 days, animals were tested for nerve conduction measurament. For motor nerve conduction tests, the sciatic nerve was stimulated percutaneously by means of single pulses of 0.02 ms duration (Grass S88) delivered through a pair of needle electrodes placed at the sciatic notch. The Compound Muscle Action Potential (CMAP, M wave) was recorded from the tibialis anterior (TA) with microneedle electrodes. […] To ensure reproducibility, the recording needles were placed under microscope to secure the same placement on all animals guided by anatomical landmarks. During the tests, the mice body temperature was kept constant by means of a thermostated warming pad.
# [6] = 0.05 mg/kg/day (0.15 mg/m^2/day) p.o. from postnatal day 70
# [7] = 0.1 mg/kg/day (0.3 mg/m^2/day) p.o. from postnatal day 70
# [8] = 1 mg/kg/day (3 mg/m^2/day) p.o. from postnatal day 70
structure (smiles),measurement,setting,value
CC1=NS(=O)(=O)c2cc(Cl)ccc2N1 [Diazoxide],hyperglycemia (glucose concentration equal or higher than 176 mg/dl),[1],none of the two doses tested in this study produced hyperglycemia
same,effect on bupivacaine-induced acute CNS toxicity (latency of convulsions),mice,reduce the bupivacaine-induced actute CNS toxicity
same,Median Survival,[2]; [6],153 days
same,Percentage of mice alive at age of 21 weeks,[2]; [6],78.6%
same,Percentage of mice alive at age of 21 weeks,"[2]; 0.05 mg/kg/day (0.15 mg/m^2/day) p.o. from postnatal day 70, listed as diazoxide",78.6%
same,Median Survival,[2]; [7],152 days
same,Percentage of mice alive at age of 21 weeks,[2]; [7],71.4%
same,Percentage of mice alive at age of 21 weeks,"[2]; 0.1 mg/kg/day (0.3 mg/m^2/day) p.o. from postnatal day 70, listed as diazoxide",71.4%
same,Median Survival,[2]; [8],156 days
same,Percentage of mice alive at age of 21 weeks,[2]; [8],85.7%
same,Percentage of mice alive at age of 21 weeks,"[2]; 1 mg/kg/day (3 mg/m^2/day) p.o. from postnatal day 70, listed as diazoxide",85.7%
same,hyperglycemia (glucose concentration equal or higher than 176 mg/dl),[3],none of the two doses tested in this study produced hyperglycemia
same,Median Age of Disease Onset,[4]; 0.8 mg/kg/day (2.4 mg/m^2/day) p.o.,121 days
same,Median Age of Disease Onset,[4]; 4 mg/kg/day (12 mg/m^2/day) p.o.,116 days
same,increase in the amplitude of the tibialis anterior CMAP compared with the vehicle control group,[5]; 0.8 mg/kg/day (2.4 mg/m2/day) p.o.,17.1%
same,increase in the amplitude of the tibialis anterior CMAP compared with the vehicle control group,[5]; 4 mg/kg/day (12 mg/m2/day) p.o.,3.4%
same,amplitude of the tibialis anterior CMAP compared to the vehicle control group,[5]; 8 mg/kg/day (24 mg/m^2/day) p.o.,no differences
